Measured values published in patent publication US20100286264A1, “COMPOSITION COMPRISING A NITROOXYDERIVATIVE OF ACETAMINOPHEN AND A ANTICONVULSANT DRUG FOR THE TREATMENT OF NEUROPATHIC PAIN” (Nicox S.A., priority 2008, published 2010).

Tested on: spinal cord neuronal responses from adult male Wistar rats with mononeuropathy
Assay: Recording of single motor units: nociceptive responses in rats with mononeuropathy (partial sciatic nerve ligation)
Format: in vivo, rat
Details: for Nociceptive responses to noxious mechanical stimulation: i.v., ± S.E.M.
Procedure: The application routes were intravenous (i.v.). The enhancement of the antinociception was studied by isobolographic analysis. Mononeuropathy was induced under anesthetic regime, seven days before the experiment, using the partial ligation of the sciatic nerve technique. The development of hyperalgesia was assessed by behavioral experiments, studying withdrawal reflex responses evoked by mechanical and thermal stimulation.

SMILES | Nociceptive responses to noxious mechanical stimulation (compound 1 15 μmol/kg alone (gabapentin 0)) | Nociceptive responses to noxious mechanical stimulation (compound 1 30 μmol/kg alone (gabapentin 0)) | Nociceptive responses to noxious mechanical stimulation (compound 1 60 μmol/kg alone (gabapentin 0)) | Nociceptive responses to noxious mechanical stimulation (compound 1 120 μmol/kg alone (gabapentin 0)) | Nociceptive responses to noxious mechanical stimulation (compound 1 240 μmol/kg alone (gabapentin 0)) | Effect on nociceptive responses evoked by noxious mechanical and electrical stimulation (intravenous, mechanical and electrical stimulation) | ID50 for noxious mechanical stimulation (intravenous, rats with mononeuropathy, noxious mechanical stimulation) [µmol/kg] | Nociceptive responses to noxious mechanical stimulation (gabapentin 20 μmol/kg alone) | Nociceptive responses to noxious mechanical stimulation (gabapentin 40 μmol/kg alone) | Nociceptive responses to noxious mechanical stimulation (gabapentin 80 μmol/kg alone) | Nociceptive responses to noxious mechanical stimulation (gabapentin 160 μmol/kg alone) | Nociceptive responses to noxious mechanical stimulation (gabapentin 320 μmol/kg alone)
CC(=O)Nc1ccc(OC(=O)CCCO[N+](=O)[O-])cc1 [Compound 1, 4-(nitrooxy)butanoic acid 4-(N-acetylamino)phenyl ester] | 98 ± 6 percentage of vehicle values | 95 ± 2 percentage of vehicle values | 91 ± 4.5 percentage of vehicle values | 86 ± 5 percentage of vehicle values | 75 ± 9 percentage of vehicle values | dose-dependently reduced the nociceptive responses | 542 ± 5 | – | – | – | – | –
NCC1(CC(=O)O)CCCCC1 [Gabapentin, reference compound] | – | – | – | – | – | – | – | 100 ± 5 percentage of vehicle values | 95 ± 1 percentage of vehicle values | 95 ± 2 percentage of vehicle values | 79 ± 3 percentage of vehicle values | 59 ± 6 percentage of vehicle values
